The values that follow come from patent US10479784B2, “Substituted pyrazin-2-amines as inhibitors of ATR kinase” (Vertex Pharmaceuticals Incorporated, priority 2008, dated 2019).

Bounds are passed on as bounds.

For this assay, the target named is full-length ATR (Homo sapiens (Human), UniProt Q13535). Nature of the assay: ATR Inhibition Assay (radioactive-phosphate incorporation). The format is biochemical. The conditions noted are these: read-out: ATR Ki. Summed up:
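Ki(app) was derived by non-linear regression of background-corrected initial rates of 33P incorporation into an 800 μM target peptide, read by phosphocellulose filter scintillation counting. Reaction conditions: 5 nM full-length ATR, 10 μM [γ-33P]ATP, pH 7.5 Tris buffer with MgCl2 and DTT, 25 °C, 10-min preincubation, 24 h run.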

full-length ATR, sequence (Q13535 whole entry): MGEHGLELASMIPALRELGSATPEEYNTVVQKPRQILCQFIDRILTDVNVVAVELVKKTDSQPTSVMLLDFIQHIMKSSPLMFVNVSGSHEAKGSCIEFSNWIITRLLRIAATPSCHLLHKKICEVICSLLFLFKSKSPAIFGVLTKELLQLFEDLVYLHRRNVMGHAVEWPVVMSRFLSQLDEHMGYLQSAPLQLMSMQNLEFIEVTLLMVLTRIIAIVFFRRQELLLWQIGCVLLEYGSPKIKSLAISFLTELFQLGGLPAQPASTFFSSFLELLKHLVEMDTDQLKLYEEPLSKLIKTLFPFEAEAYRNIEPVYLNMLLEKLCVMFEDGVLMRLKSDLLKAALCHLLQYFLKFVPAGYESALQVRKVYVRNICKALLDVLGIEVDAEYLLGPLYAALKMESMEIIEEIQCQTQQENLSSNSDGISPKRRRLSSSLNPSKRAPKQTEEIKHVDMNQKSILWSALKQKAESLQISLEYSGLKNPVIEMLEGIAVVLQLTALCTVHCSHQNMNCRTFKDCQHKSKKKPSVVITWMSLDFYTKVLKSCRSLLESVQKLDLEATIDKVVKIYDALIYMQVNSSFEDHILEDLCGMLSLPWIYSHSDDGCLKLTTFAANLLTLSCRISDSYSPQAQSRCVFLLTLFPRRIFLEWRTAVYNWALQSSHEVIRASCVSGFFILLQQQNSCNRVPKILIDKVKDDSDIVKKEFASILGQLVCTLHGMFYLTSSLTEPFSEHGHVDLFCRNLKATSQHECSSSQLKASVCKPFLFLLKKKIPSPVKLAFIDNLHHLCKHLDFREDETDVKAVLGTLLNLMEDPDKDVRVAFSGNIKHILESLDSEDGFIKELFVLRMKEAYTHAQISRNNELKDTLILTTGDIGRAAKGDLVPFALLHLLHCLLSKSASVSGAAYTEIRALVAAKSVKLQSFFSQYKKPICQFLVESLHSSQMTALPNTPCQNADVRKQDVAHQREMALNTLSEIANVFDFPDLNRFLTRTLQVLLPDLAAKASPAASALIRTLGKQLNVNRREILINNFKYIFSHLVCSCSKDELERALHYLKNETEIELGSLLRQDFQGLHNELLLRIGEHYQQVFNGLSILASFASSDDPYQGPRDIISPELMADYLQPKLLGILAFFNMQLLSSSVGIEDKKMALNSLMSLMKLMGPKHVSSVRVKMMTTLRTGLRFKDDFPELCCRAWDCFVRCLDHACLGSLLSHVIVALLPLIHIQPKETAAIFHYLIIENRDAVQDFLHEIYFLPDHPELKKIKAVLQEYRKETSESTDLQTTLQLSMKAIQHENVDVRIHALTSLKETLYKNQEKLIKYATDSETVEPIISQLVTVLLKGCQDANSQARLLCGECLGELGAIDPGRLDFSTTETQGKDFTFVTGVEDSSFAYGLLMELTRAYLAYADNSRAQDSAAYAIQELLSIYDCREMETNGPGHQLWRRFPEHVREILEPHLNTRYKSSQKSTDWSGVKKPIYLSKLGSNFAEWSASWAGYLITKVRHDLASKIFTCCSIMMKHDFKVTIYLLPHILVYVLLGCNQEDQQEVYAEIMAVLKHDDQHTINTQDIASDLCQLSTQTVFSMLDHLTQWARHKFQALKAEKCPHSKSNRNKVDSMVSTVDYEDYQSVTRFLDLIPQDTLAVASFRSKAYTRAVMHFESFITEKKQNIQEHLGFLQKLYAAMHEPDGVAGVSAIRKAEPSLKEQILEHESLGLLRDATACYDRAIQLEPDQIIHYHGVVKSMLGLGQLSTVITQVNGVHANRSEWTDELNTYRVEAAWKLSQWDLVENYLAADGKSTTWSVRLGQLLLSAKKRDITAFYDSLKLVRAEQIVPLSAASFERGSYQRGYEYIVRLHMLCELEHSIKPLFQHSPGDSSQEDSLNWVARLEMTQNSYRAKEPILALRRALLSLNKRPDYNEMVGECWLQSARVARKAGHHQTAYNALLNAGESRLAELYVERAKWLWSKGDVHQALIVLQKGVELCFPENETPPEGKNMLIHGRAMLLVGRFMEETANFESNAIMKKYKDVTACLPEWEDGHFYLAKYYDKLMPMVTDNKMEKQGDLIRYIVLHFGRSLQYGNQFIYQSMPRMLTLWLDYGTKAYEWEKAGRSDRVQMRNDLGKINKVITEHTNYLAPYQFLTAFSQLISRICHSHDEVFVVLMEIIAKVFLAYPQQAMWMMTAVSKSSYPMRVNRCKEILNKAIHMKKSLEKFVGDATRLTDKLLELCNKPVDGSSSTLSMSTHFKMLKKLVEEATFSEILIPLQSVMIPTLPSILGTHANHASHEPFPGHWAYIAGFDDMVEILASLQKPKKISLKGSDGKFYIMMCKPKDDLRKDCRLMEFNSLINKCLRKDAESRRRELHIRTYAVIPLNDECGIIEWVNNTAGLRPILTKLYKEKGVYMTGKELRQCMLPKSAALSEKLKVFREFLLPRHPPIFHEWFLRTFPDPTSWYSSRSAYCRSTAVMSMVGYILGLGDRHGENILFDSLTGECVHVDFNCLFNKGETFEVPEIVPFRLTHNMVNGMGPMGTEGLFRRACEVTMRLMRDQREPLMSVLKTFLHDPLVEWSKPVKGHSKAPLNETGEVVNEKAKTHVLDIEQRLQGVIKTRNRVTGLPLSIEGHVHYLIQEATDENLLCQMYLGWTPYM

In the case of `Nc1ncc(-c2ccc(C(=O)N3CCC(N4CCCC4)CC3)cc2)nc1C(=O)Nc1ccccc1` [Compound I-71, 3-amino-N-phenyl-6-(4-(4-(pyrrolidin-1-yl)piperidine-1-carbonyl)phenyl) pyrazine-2-carboxamide], the Ki – broadly, a dissociation constant, usually derived from enzyme kinetics or from competition with a known ligand – is 10 to 100 nM.

`CC(C)S(=O)(=O)c1ccc(-c2cnc(N)c(-c3nnc(-c4ccc(CCN)cc4)o3)n2)cc1` [IA-107, 3-[5-[4-(2-aminoethyl)phenyl]-1,3,4-oxadiazol-2-yl]-5-(4-isopropylsulfonylphenyl)pyrazin-2-amine]: the Ki is at most 10 nM.

For the compound `Nc1ncc(-c2ccccc2CCO)nc1-c1nnc(-c2ccccc2)o1` [IA-137, 2-[2-[5-amino-6-(5-phenyl-1,3,4-oxadiazol-2-yl)pyrazin-2-yl]phenyl]ethanol], the Ki is 10 to 100 nM.

With `COc1ccccc1-c1nnc(-c2nc(-c3ccc(C(=O)N(C)C)cc3)cnc2N)o1` [IA-242, 4-[5-amino-6-[5-(2-methoxyphenyl)-1,3,4-oxadiazol-2-yl]pyrazin-2-yl]-N,N-dimethyl-benzamide], the Ki was at most 10 nM.

On to `NC(=O)c1ccc(NC(=O)c2nc(-c3cccnc3)cnc2N)cc1` [Compound I-92, 3-amino-N-(4-carbamoylphenyl)-6-(pyridin-3-yl)pyrazine-2-carboxamide], for which the Ki was 100 to 5000 nM.

As to `Nc1ncc(-c2cccnc2)nc1C(=O)Nc1cccc2cc[nH]c12` [Compound I-83, 3-amino-N-(1H-indol-7-yl)-6-(pyridin-3-yl)pyrazine-2-carboxamide], the Ki was 100 to 5000 nM.

As to `Nc1ncc(-c2cccnc2)nc1C(=O)Nc1ccccc1OC(F)(F)F` [Compound I-102, 3-amino-6-(pyridin-3-yl)-N-(2-(trifluoromethoxy)phenyl)pyrazine-2-carboxamide], the Ki lay in the range of 10 to 100 nM.

In the case of `CSc1ccccc1-c1cnc(N)c(-c2nnc(-c3ccccc3)o2)n1` [IA-230, 5-(2-methylsulfanylphenyl)-3-(5-phenyl-1,3,4-oxadiazol-2-yl)pyrazin-2-amine], the Ki was in the range of 10 to 100 nM.

Turning to `Cc1ccc2nc(-c3nc(-c4ccc(S(C)(=O)=O)cc4)cnc3N)[nH]c2c1` [Compound I-117, 3-(6-methyl-1H-benzo[d]imidazol-2-yl)-5-(4-(methylsulfonyl)phenyl) pyrazin-2-amine], the Ki was in the range of 10 to 100 nM.

For `CNCc1ccc(-c2nnc(-c3nc(-c4ccc(S(=O)(=O)C(C)CCO)cc4)cnc3N)o2)c(F)c1` (stereo not shown) [IA-342, 3-[4-[5-amino-6-[5-[2-fluoro-4-(methylaminomethyl)phenyl]-1,3,4-oxadiazol-2-yl]pyrazin-2-yl]phenyl]sulfonylbutan-1-ol], the Ki was at most 10 nM.

Turning to `Nc1ncc(-c2cccc(C(=O)NC3CCOCC3)c2)nc1C(=O)Nc1ccccc1` [Compound I-66, 3-amino-N-phenyl-6-(3-(tetrahydro-2H-pyran-4-ylcarbamoyl)phenyl) pyrazine-2-carboxamide], the Ki lay within 10 to 100 nM.

Turning to `CC(C)(C)OC(=O)N1CCCN(C(=O)c2ccc(-c3cnc(N)c(-c4nnc(-c5ccccc5)o4)n3)cc2)CC1` [IA-28], the inhibitory constant (Ki) was at most 10 nM.

As to `CS(=O)(=O)Nc1cccc(-c2cnc(N)c(C(=O)Nc3ccccc3)n2)c1` [Compound I-25, 3-amino-6-(3-(methylsulfonamido)phenyl)-N-phenylpyrazine-2-carboxamide], the inhibitory constant (Ki) lay within 10 to 100 nM.

As to `COC(=O)c1ccc2nc(-c3nc(-c4ccc(S(C)(=O)=O)cc4)cnc3N)[nH]c2c1` [Compound I-116, methyl 2-(3-amino-6-(4-(methylsulfonyl)phenyl)pyrazin-2-yl)-1H-benzo[d]imidazole-6-carboxylate], the Ki lay in the range of 100 to 5000 nM.

For `Cc1ccc2nc(-c3nc(-c4ccc(C(=O)N5CCN(C)CC5)cc4)cnc3N)[nH]c2c1` [III-4, (4-(5-amino-6-(6-methyl-1H-benzo[d]imidazol-2-yl)pyrazin-2-yl)phenyl)(4-methylpiperazin-1-yl)methanone], the Ki fell in the range of 10 to 100 nM.

For the compound `Nc1ncc(-c2ccc(C(=O)N3CCCNCC3)cc2)nc1C(=O)Nc1cc2ccccc2[nH]1` [Compound V-26], the Ki fell in the range of 100 to 5000 nM.

With `CS(=O)(=O)c1ccc(-c2cnc(N)c(-c3nc4ccc(Cl)cc4[nH]3)n2)cc1` [Compound I-114, 3-(6-chloro-1H-benzo[d]imidazol-2-yl)-5-(4-(methylsulfonyl)phenyl) pyrazin-2-amine], the Ki was at most 10 nM.

For `CC(C)S(=O)(=O)c1ccc(-c2cnc(N)c(-c3nnc(-c4ccc(O)cc4)o3)n2)cc1` [IA-193, 4-[5-[3-amino-6-(4-isopropylsulfonylphenyl)pyrazin-2-yl]-1,3,4-oxadiazol-2-yl]phenol], the Ki is at most 10 nM.

On to `CC(C)S(=O)(=O)c1ccc(-c2cnc(N)c(-c3nnc(CCNC(=O)OC(C)(C)C)o3)n2)cc1` [IA-251, tert-butyl N-[2-[5-[3-amino-6-(4-isopropylsulfonylphenyl)pyrazin-2-yl]-1,3,4-oxadiazol-2-yl]ethyl]carbamate], for which the Ki lay within 100 to 5000 nM.

As to `N#CCCN1CCN(C(=O)c2cccc(-c3cnc(N)c(C(=O)Nc4ccccc4)n3)c2)CC1` [Compound I-58, 3-amino-6-(3-(4-(2-cyanoethyl)piperazine-1-carbonyl)phenyl)-N-phenylpyrazine-2-carboxamide], the Ki lay within 100 to 5000 nM.

For the compound `CN(C)C(=O)c1ccc(-c2cnc(N)c(-c3nnc(NCCc4ccccc4)o3)n2)cc1` [IA-156, 4-[5-amino-6-[5-(phenethylamino)-1,3,4-oxadiazol-2-yl]pyrazin-2-yl]-N,N-dimethyl-benzamide], the Ki lay in the range of 100 to 5000 nM.

For `Nc1ncc(-c2ccc(C(=O)N3CCCNCC3)cc2)nc1-c1nnc(-c2ccccc2)s1` [IA-68, (4-(5-amino-6-(5-phenyl-1,3,4-thiadiazol-2-yl)pyrazin-2-yl)phenyl)(1,4-diazepan-1-yl)methanone], the Ki is at most 10 nM.

`COc1ccc(NC(=O)c2nc(-c3cccnc3)cnc2N)cc1` [Compound I-84, 3-amino-N-(4-methoxyphenyl)-6-(pyridin-3-yl)pyrazine-2-carboxamide]: the Ki lay within 100 to 5000 nM.

Regarding `CCc1ncccc1NC(=O)c1nc(-c2ccc(S(C)(=O)=O)cc2)cnc1N` [VII-4], the Ki lay in the range of 10 to 100 nM.

As for `CC(C)S(=O)(=O)c1ccc(-c2cnc(N)c(-c3nnc(-c4cc(C#N)cs4)o3)n2)cc1` [IA-143, 5-[5-[3-amino-6-(4-isopropylsulfonylphenyl)pyrazin-2-yl]-1,3,4-oxadiazol-2-yl]thiophene-3-carbonitrile], the Ki fell in the range of 10 to 100 nM.

Turning to `CS(=O)(=O)c1ccc(-c2cnc(N)c(C(=O)Nc3ncns3)n2)cc1` [VII-7], the Ki fell in the range of 10 to 100 nM.

Take `CN(C)C1CCN(C(=O)c2c(F)cc(-c3cnc(N)c(-c4nnc(-c5ccccc5)o4)n3)cc2F)CC1` [IA-21]: the Ki fell in the range of 10 to 100 nM.

As for `COC1CN(C(=O)c2cccc(-c3cnc(N)c(C(=O)Nc4ccccc4)n3)c2)C1` [Compound I-60, 3-amino-6-(3-(3-methoxyazetidine-1-carbonyl)phenyl)-N-phenylpyrazine-2-carboxamide], the Ki fell in the range of 100 to 5000 nM.

Consider `Cc1cccc(-c2nnc(-c3nc(-c4cccnc4)cnc3N)[nH]2)c1` [Compound I-141, 5-(pyridin-3-yl)-3-(5-m-tolyl-4H-1,2,4-triazol-3-yl)pyrazin-2-amine], for which the Ki lay within 10 to 100 nM.

For `C=Cc1ccccc1-c1cnc(N)c(-c2nnc(-c3ccccc3)o2)n1` [IA-253, 3-(5-phenyl-1,3,4-oxadiazol-2-yl)-5-(2-vinylphenyl)pyrazin-2-amine], the Ki fell in the range of 100 to 5000 nM.

For `CCNCc1ccc(-c2cc(-c3nc(-c4ccc(S(=O)(=O)C(C)C)cc4)cnc3N)on2)cc1` [IIA-10, 3-[3-[4-(ethylaminomethyl)phenyl]isoxazol-5-yl]-5-(4-isopropylsulfonylphenyl)pyrazin-2-amine], the Ki is at most 10 nM.

Turning to `CCc1ccccc1-c1cnc(N)c(-c2nnc(-c3ccccc3)o2)n1` [IA-57], the inhibitory constant (Ki) lay within 100 to 5000 nM.

For the compound `CC(C)S(=O)(=O)c1ccc(-c2cnc(N)c(-c3nnc(C(=O)NC4CCCCC4N)o3)n2)cc1` (stereo not shown) [IA-81, N-(2-aminocyclohexyl)-5-[3-amino-6-(4-isopropylsulfonylphenyl)pyrazin-2-yl]-1,3,4-oxadiazole-2-carboxamide], the Ki lay in the range of 100 to 5000 nM.

Turning to `CNCc1ccc(-c2nnc(-c3nc(-c4ccc(S(=O)(=O)NCCO)cc4)cnc3N)o2)cc1` [IA-304, 4-[5-amino-6-[5-[4-(methylaminomethyl)phenyl]-1,3,4-oxadiazol-2-yl]pyrazin-2-yl]-N-(2-hydroxyethyl)benzenesulfonamide], the Ki is at most 10 nM.

For `NC(=O)c1cccc(NC(=O)c2nc(-c3cccnc3)cnc2N)c1` [Compound I-88, 3-amino-N-(3-carbamoylphenyl)-6-(pyridin-3-yl)pyrazine-2-carboxamide], the Ki fell in the range of 100 to 5000 nM.

On to `CN(C)C(=O)c1ccc(-c2cnc(N)c(-c3nnc(-c4cccc(CCO)c4)o3)n2)cc1` [IA-69, 4-[5-amino-6-[5-[3-(2-hydroxyethyl)phenyl]-1,3,4-oxadiazol-2-yl]pyrazin-2-yl]-N,N-dimethyl-benzamide], for which the inhibition constant (Ki) was in the range of 10 to 100 nM.

With `CC(C)S(=O)(=O)c1ccc(-c2cnc(N)c(-c3nnc(-c4cccc(CN)c4)o3)n2)cc1` [IA-220, 3-[5-[3-(aminomethyl)phenyl]-1,3,4-oxadiazol-2-yl]-5-(4-isopropylsulfonylphenyl)pyrazin-2-amine], the inhibition constant (Ki) is at most 10 nM.

Consider `CC(C)S(=O)(=O)c1ccc(-c2cnc(N)c(-c3nnc(NC4CCCNC4)o3)n2)cc1` (stereo not shown) [IA-199, 5-[3-amino-6-(4-isopropylsulfonylphenyl)pyrazin-2-yl]-N-(3-piperidyl)-1,3,4-oxadiazol-2-amine], for which the Ki lay in the range of 100 to 5000 nM.

For `CNCc1ccc(-c2nnc(-c3nc(-c4ccc(S(=O)(=O)C(C)C)c(C#N)c4)cnc3N)o2)cc1` [IA-295, 5-[5-amino-6-[5-[4-(methylaminomethyl)phenyl]-1,3,4-oxadiazol-2-yl]pyrazin-2-yl]-2-isopropylsulfonyl-benzonitrile], the Ki is at most 10 nM.

With `CN(C)C(=O)c1ccc(-c2cnc(N)c(-c3nnc(-c4ccsc4)o3)n2)cc1` [IA-262, 4-[5-amino-6-[5-(3-thienyl)-1,3,4-oxadiazol-2-yl]pyrazin-2-yl]-N,N-dimethyl-benzamide], the Ki was at most 10 nM.
